# Test results taken from patent US20070099982A1, “Use of chp as an inhibitor of glutathione s-transferases and collagen IV” (priority 2003, published 2007).
# Like-named read-outs stand apart in the source and are kept apart here.
# What was measured:
# collagen IV = settings: mean of 12 healthy subjects, 4×2 g CHP per day over 14 days
# From the text: CHP was repeatedly administered over 14 days, using 4×2 g of CHP per day.
# [1] = test system: α-glutathione S transferase; settings: mean of 12 healthy subjects, 4×2.0 g CHP/day over 14 days
compound,measurement,setting,value
"O=C(O)[C@@H]1C[C@@H](O)CN1 (relative stereo) [CHP, cis-hydroxy-L-proline]","Concentration of collagen IV in serum, MEAN",collagen IV; day 0,115.39
same,"Concentration of collagen IV in serum, MEAN",collagen IV; day 7,93.03
same,"Concentration of collagen IV in serum, MEAN",collagen IV; day 13,99.79
same,"Concentration of collagen IV in serum, MEAN",collagen IV; day 13.25,92.87
same,"Concentration of collagen IV in serum, MEAN",collagen IV; day 14,97.77
same,"Concentration of collagen IV in serum, MEAN",collagen IV; day 17,93.45
same,"Concentration of α-glutathione S transferase in serum, MEAN",[1]; day 0,0.46
same,"Concentration of α-glutathione S transferase in serum, MEAN",[1]; day 7,0.37
same,"Concentration of α-glutathione S transferase in serum, MEAN",[1]; day 13,0.26
same,"Concentration of α-glutathione S transferase in serum, MEAN",[1]; day 13.25,0.20
same,"Concentration of α-glutathione S transferase in serum, MEAN",[1]; day 14,0.21
same,"Concentration of α-glutathione S transferase in serum, MEAN",[1]; day 17,0.18
